Measured values taken from patent publication US6693126B2, “Dihydroxyphenyl derivatives for hepatoprotection and treatment of liver diseases” (Choongwae Pharm. Co., Ltd., priority 2000, dated 2004).

Assays:
[1] = tested on: Liver Injuries caused by Carbon Tetrachloride in Rats; assay: Inhibitory effect against liver injuries caused by carbon tetrachloride in rats; assay type: in vivo, Rats (SD, male); conditions: CCl4 i.p., serum 24 h
Excerpt: (§1) The carbon tetrachloride model(see, Philippe letteron et al., Biochemical Pharmacology, 39, 12, 2027-2034, 1990; Tips, 10, 1989; Kyoichi Kagawa et al., Japan J. Pharmacol., 42, 19-26, 1986; K. T. Liu and P. Lesca, Chem. Biol. Interactions, 41, 39-47, 1982; Richard O. et al., J. Biological Chemistry, 236, 2, 1961) is used most generally. This model has been established based on the internal phenomena that carbon tetrachloride is converted by cytochrome P-450 to a toxic free radical trichloromethyl(CCl3.), this radical is strongly bound to a thiol group of membrane protein on microsome of liver to form a lipid radical, which is then converted to a peroxy radical in the presence of oxygen to facilitate the peroxidation reaction of membrane lipid. That is, carbon tetrachloride suppresses protein biosynthesis in the liver, induces the increase of ALT and AST values in blood, and further causes histologically the centrilobular necrosis of the liver.
(§2) The degree of liver damage in the experimental animals was determined by measuring ALT and AST values in blood(see, Biol. Pharm. Bull., 20, 4, 381-385, 1997; Toxicology and Applied Pharmacology, 95, 1-11, 1988), and the hepatoprotective activity was calculated based on the following formula(see, Planta Medica, 55, 127-132, 1989). At this time, the hepatoprotective activity can also be calculated based on the same formula by replacing ALT value with AST value. [formula]
(§3) The hepatoprotective effect of the compound of the present invention was identified according to a known procedure(see, Philippe letteron et al., Biochemical Pharmacology, 39, 12, 2027-2034, 1990), and the protocol may be described in brief as follows.
(§4) Rats(SD, male, 180˜200 g) and mice(ICR, male, 27-35 g) used in the test were allowed in a condition of temperature 22±1° C. and relative humidity 60±5%. Feed and water were provided with no restriction while light and darkness were changed at an interval of 12 hours.
(§5) […] […] Each group included 8 test animals, and the test compound was orally administered once per animal. After 30 minutes(rat) or 1 hour(mouse) from the administration of the test compound, 10% carbon tetrachloride in corn oil solution was intraperitoneally injected in doses of 2 ml/kg in rats and 0.15 ml/kg in mice. As the control compounds, silymarin and DDB were selected.
(§6) The test animals were provided with no feed and sufficient water for 24 hours from the administration of carbon tetrachloride. […] This blood was centrifuged to obtain sera. ALT and AST values in the sera were measured using blood chemistry analyzer(Vitalab, Selectra II, Merck). The statistical significance for the test result of each group was examined based on Student's t-test, and the result was recognized as having a statistical significance when its P value is less than 5%.

[2] = tested on: Liver Injuries caused by Carbon Tetrachloride in Mice; assay: Inhibitory effect against liver injuries caused by carbon tetrachloride in mice; assay type: in vivo, mice (ICR, male); conditions: CCl4 i.p., serum 24 h
Excerpt: as §1, §2, §3, §4, §5, §6

[3] = tested on: Fulminant Liver Injuries caused by D-galactosamine/lipopolysaccharide in Mice; assay: Inhibitory effect against fulminant liver injuries caused by D-galactosamine/lipopolysaccharide in mice (survival); assay type: in vivo, Mice (ICR, male); conditions: D-galactosamine 800 mg/kg + lipopolysaccharide 10 μg/kg i.p., observed 24 hours
Excerpt: Further, the D-galactosamine/lipopolysaccharide model(see, Chris Galanos et al., Proc. Natl. Acad. Sci. USA, 76, 11, 5939-5943, 1979; Koji Hase et al., Biol. Pharm. Bull., 20, 4, 381-385, 1997; Junichi Nagakawa et al., The Journal of Pharmacology and Experimental Therapeutics, 264, 1, 1992; Nolan J. D., Hepatology, 1, 458-465, 1981; Wendel A., Methods Enzymol., 186, 675-680, 1990) which is also used in the present invention for the identification of hepatoprotective effect is based on the phenomena that liver injuries are caused by immune responses in mouse. It has been reported that such kind of liver injuries are caused not by direct tissue lesions due to the chemicals but by secretion of tumor necrosis factor(TNF)-α, reactive oxygen, etc.(see, Hishinuma I. et al., Hepatology, 12, 1187-1191, 1990, Hase K. et al., Phytother. Res., 10, 387-392, 1996). Here, D-galactosamine supresses protein biosynthesis and as well highly increases the sensitivity of the liver cells for lipopolysaccharide by reducing uridine nucleotide.
The hepatoprotective effect of the compound of the present invention was identified according to a known procedure(see, Koji Hase et al., Biol. Pharm. Bull., 20, 4, 381-385, 1997), and the protocol may be described in brief as follows.
Mice(ICR, male, 27˜35 g) as the test animal were allowed in a condition of temperature 22±1° C. and relative humidity 60±5%. Feed and water were provided with no restriction while light and darkness were changed at an interval of 12 hours.
The compound of the present invention was suspended in a solvent corn oil, and this suspension was administered in a dose of 10 ml/kg. Each group included 10 test animals, and the test compound was orally administered once per animal. After 1 hour from the administration of the test compound, D-galactosamine and lipopolysaccharide each of which dissolved in physiological saline were intraperitoneally injected at the same time in doses of 800 mg/kg and 10 μg/kg, respectively. As the control compounds, SY-640[N-methyl-N-(3,4-methylenedioxyphenacyl)acetamide; EP0350251], silymarin and DDB were selected.
The statistical significance for the test result of each group was examined based on Student's t-test, and the result was recognized as having a statistical significance when its P value is less than 5%.

CC(=O)SCC(=O)c1ccc2c(c1)OCO2 [Compound 28, 1-(benzo[3,4-d]1,3-dioxolan-5-yl)-2-acetylthioethan-1-one]
Inhibitory Effect against Liver Injuries (%) ALT ([1]; dose 16.7 mg/kg p.o. once): 14% | Inhibitory Effect against Liver Injuries (%) ALT ([1]; dose 50 mg/kg p.o. once): 41% | Inhibitory Effect against Liver Injuries (%) ALT ([2]; dose 16.7 mg/kg p.o. once): 93% | Inhibitory Effect against Liver Injuries(%) AST ([2]; dose 16.7 mg/kg p.o. once): 94% | Inhibitory Effect against Liver Injuries (%) ALT ([2]; dose 50 mg/kg p.o. once): 100% | Inhibitory Effect against Liver Injuries(%) AST ([2]; dose 50 mg/kg p.o. once): 100% | Survival Rate (%) ([3]; dose 5.6 mg/kg oral once): 100%

O/N=C/c1ccc2c(c1)OCO2 [Compound 1]
Inhibitory Effect against Liver Injuries (%) ALT ([1]; dose 1.9 mg/kg p.o. once): 44% | Inhibitory Effect against Liver Injuries (%) ALT ([1]; dose 5.6 mg/kg p.o. once): 43% | Inhibitory Effect against Liver Injuries (%) ALT ([1]; dose 16.7 mg/kg p.o. once): 68% | Inhibitory Effect against Liver Injuries (%) ALT ([1]; dose 50 mg/kg p.o. once): 84% | Inhibitory Effect against Liver Injuries (%) ALT ([2]; dose 1.9 mg/kg p.o. once): 50% | Inhibitory Effect against Liver Injuries (%) ALT ([2]; dose 5.6 mg/kg p.o. once): 79% | Inhibitory Effect against Liver Injuries (%) ALT ([2]; dose 16.7 mg/kg p.o. once): 100% | Inhibitory Effect against Liver Injuries (%) ALT ([2]; dose 50 mg/kg p.o. once): 100% | Survival Rate (%) ([3]; dose 50 mg/kg oral once): 90%

c1csc(-c2ccc3c(c2)OCO3)n1 [Compound 21, 2-(benzo[3,4-d]1,3-dioxolan-5-yl)-1,3-thiazole]
Inhibitory Effect against Liver Injuries (%) ALT ([1]; dose 16.7 mg/kg p.o. once): 63% | Inhibitory Effect against Liver Injuries (%) ALT ([1]; dose 50 mg/kg p.o. once): 67% | Inhibitory Effect against Liver Injuries (%) ALT ([2]; dose 16.7 mg/kg p.o. once): 99% | Inhibitory Effect against Liver Injuries(%) AST ([2]; dose 16.7 mg/kg p.o. once): 97% | Inhibitory Effect against Liver Injuries (%) ALT ([2]; dose 50 mg/kg p.o. once): 100% | Inhibitory Effect against Liver Injuries(%) AST ([2]; dose 50 mg/kg p.o. once): 100% | Survival Rate (%) ([3]; dose 5.6 mg/kg oral once): 100%

COc1cc(/C=N/OCc2ccccn2)cc2c1OCO2 [Compound 13, 6-(2-((2-pyridyl)methoxy)-2-azavinyl)-4-methoxybenzo [d]1,3-dioxolane]
Inhibitory Effect against Liver Injuries (%) ALT ([1]; dose 1.9 mg/kg p.o. once): 53% | Inhibitory Effect against Liver Injuries (%) ALT ([1]; dose 5.6 mg/kg p.o. once): 49% | Inhibitory Effect against Liver Injuries (%) ALT ([1]; dose 16.7 mg/kg p.o. once): 59% | Inhibitory Effect against Liver Injuries (%) ALT ([1]; dose 50 mg/kg p.o. once): 67% | Inhibitory Effect against Liver Injuries (%) ALT ([2]; dose 1.9 mg/kg p.o. once): 35% | Inhibitory Effect against Liver Injuries (%) ALT ([2]; dose 5.6 mg/kg p.o. once): 43% | Inhibitory Effect against Liver Injuries (%) ALT ([2]; dose 16.7 mg/kg p.o. once): 69% | Inhibitory Effect against Liver Injuries (%) ALT ([2]; dose 50 mg/kg p.o. once): 100% | Survival Rate (%) ([3]; dose 50 mg/kg oral once): 90%

COC(=O)c1cc(OC)c2c(c1-c1c(C(=O)OC)cc(OC)c3c1OCO3)OCO2 [DDB, reference compound]
Inhibitory Effect against Liver Injuries (%) ALT ([1]; dose 50 mg/kg p.o. once): 21% | Inhibitory Effect against Liver Injuries (%) ALT ([2]; dose 50 mg/kg p.o. once): 22% | Inhibitory Effect against Liver Injuries(%) AST ([2]; dose 50 mg/kg p.o. once): 6% | Survival Rate (%) ([3]; dose 50 mg/kg oral once): 80%
